# Measured values: patent publication US20130052268A1, “COMPOSITIONS AND METHODS FOR TREATMENT OF PARKINSON'S DISEASE” (THE MCLEAN HOSPITAL CORPORATION, priority 2010, published 2013)
# Experiments:
# Type in all cases: cell-based, mouse
# ES cell-derived NP cells = assay: siRNA knock down of Lmx1a and Lmx1b in ES cell-derived NP and ND stage cells
# Protocol: For siRNA transfection, NP stage cells were treated with 50 ng/ml FGF8 and 100 ng/ml SHH for 4 days to induce/proliferate mDA NPs, followed by transfection with siRNA using the Nucleofector (Amaxa, Walkersville, Md.) mouse stem cell kit with the program A-033 according to the manufacturer's instruction. Per transfection, 5×10^6 NP cells were treated with 480 pmol of siRNA, diluted in 10 ml of N3bFGF media (or N3 media for ND stage transfection) and plated in PLO/FN-coated multiwell plate, resulting in a final siRNA concentration of 48 nM. For ND stage transfection, cells were further differentiated in N3 media for 2 days before transfection. Multiple Stealth siRNAs were purchased from Invitrogen (Carlsbad, Calif.), screened for gene silencing efficiency by cotransfection with Lmx1a or Lmx1b-expressing plasmids and only siRNAs showing efficient gene silencing (>95%) was used for the experiments. The sequences of the siRNAs are as follows: the Lmx1a sense strand […] (SEQ ID NO: 1); the Lmx1a antisense strand […] (SEQ ID NO: 2); the Lmx1b sense strand […] (SEQ ID NO: 3); the Lmx1b antisense strand […] (SEQ ID NO: 4). Thirty hours after transfection, cells were fixed for immunocytochemistry or harvested for RNA preparation.
# To further study the redundant function between Lmx1a and Lmx1b, experiments were carried out to knock down these genes using gene-specific siRNA approach. ES cell-derived NP cells were treated with SHH and FGF8 for 4 days to induce/proliferate mDA NPs, and then transfected with control siRNA, Lmx1a siRNA, Lmx1b siRNA or both Lmx1a/1b siRNAs using Nucleofector (Amaxa) and analyzed after 30 hours. […] This insignificant effect is in contrast with the robust induction effect observed in overexpression experiment (FIG. 5A). This can be explained by incomplete knockdown by siRNA and/or nonphysiological overexpression effect caused by retroviral transduction. […] Since Pitx3^+ cells were not yet detectable at this NP stage, the gene knockdown experiment was repeated at ND stage cells.
# SHH signaling [1] = assay: Acute treatment of ES-derived NP cells with SHH or cyclopamine, qPCR; details: 6 hours
# Protocol: For all other samples, total RNA was prepared using TriReagent (Sigma, St. Louis, Mo.) followed by further purification using RNeasy mini kit (Qiagen, Valencia, Calif.). For RT-PCR analysis, 2 ? g of RNA were transcribed into cDNA with the SuperScript™ II RT (Invitrogen, Carlsbad, Calif.) and oligo (dT) primers. For quantitative analysis of the expression level of mRNAs, real-time PCR analyses using SYBR green I were performed using a DNA engine Opticon™ (MJ Research, Waltham, Mass.). To reduce non-specific signals, oligonucleotides amplifying small amplicons were designed using the MacVector software (Oxford Molecular Ltd.: primers sequences are available upon request). Amplifications were performed in 25 μl containing 0.5 μM of each primer,
# 0.5×SYBR Green I (Molecular Probes, Oreg.), and 2 μl of 5 fold diluted cDNA. Fifty PCR cycles were performed with a temperature profile consisting of 95° C. for 30 sec, 55° C. for 30 sec, 72° C. for 30 sec, and 79° C. for 5 sec. The dissociation curve of each PCR product was determined to ensure that the observed fluorescent signals were only from specific PCR products. After each PCR cycle, the fluorescent signals were detected at 79° C. to melt primer dimers (Tms of all primer dimers used in this study were <76° C.). A standard curve was constructed using plasmid DNAs containing the GAPDH gene (from 10^2 to 10^8 molecules). The fluorescent signals from specific PCR products were normalized against that of the β-actin gene, and then relative values were calculated by setting the normalized value of control as 1 (or 100 in some cases). All reactions were repeated using more than three independent samples.
# (§1) It was previously shown that SHH treatment could ventralize chick intermediate midbrain explants, accompanied by induction of Lmx1a and other ventral midbrain phenotype (Andersson et al., 2006b). […] ES-derived NP cells were treated with 500 ng/ml SHH or 1 μM cyclopamine for 6 hours and analyzed by qPCR.
# SHH signaling [2] = assay: Wnt1 induction of Lmx1a in the presence of the SHH signaling inhibitor cyclopamine, qPCR at NP stage; details: Wnt1-retrovirus transduced NP cells, 1 mM cyclopamine for 3 days
# Protocol: FIG. 10A-B show interaction between SHH and other factors. […] J1 ES-derived NP cells were transduced with empty- or Wnt1-retrovirus and cultured in the absence or presence of […] cyclopamine for 3 days, and analyzed by qPCR at NP stage. […] NP stage cells were treated with 500 ng/ml of SHH or […] Cyclopamine for 6 hours and analyzed by qPCR.
# as §1
# [3] = ND stage, 30 hrs after transfection
# [4] = NP stage, 30 hours after transfection
# [5] = NP stage, 30 hours after transfection, 48 nM siRNA
# [6] = NP cells, 500 ng/ml SHH or 1 μM cyclopamine
compound,measurement,setting,value
"Lmx1b siRNA: Stealth siRNA, sense GGAACGACUCCAUCUUCCACGAUAU (SEQ ID NO: 3), antisense SEQ ID NO: 4 (antisense AUAUCGUGGAAGAUGGAGUCGUUCC; Stealth modification, further chemistry not given here)",mRNA level of Lmx1b,ES cell-derived NP cells; [3],significantly reduced
same,Nurr1 gene expression,ES cell-derived NP cells; [4],did not have significant effect
same,Wnt1 gene expression,ES cell-derived NP cells; [4],did not have significant effect
same,mRNA level of Lmx1b,ES cell-derived NP cells; [5],significantly reduced
CC1=C2C[C@H]3[C@@H](CC=C4C[C@@H](O)CC[C@@]43C)[C@@H]2CC[C@]12O[C@@H]1C[C@H](C)CN[C@H]1[C@H]2C [cyclopamine],Lmx1a mRNA levels,SHH signaling [1]; [6],no significant changes
same,Nurr1 mRNA levels,SHH signaling [1]; [6],no significant changes
same,TH mRNA levels,SHH signaling [1]; [6],no significant changes
same,mRNA level of Gli1,"SHH signaling [1]; NP stage cells, 500 ng/ml SHH or μM Cyclopamine",reduced
same,induction of Lmx1a gene expression by Wnt1,SHH signaling [2],not affected
"Lmx1a siRNA: Stealth siRNA, sense GAGGAGAGCAUUCAAGGCCUCGUUU (SEQ ID NO: 1), antisense SEQ ID NO: 2 (antisense AAACGAGGCCUUGAAUGCUCUCCUC; Stealth modification, further chemistry not given here)",mRNA level of Lmx1a,ES cell-derived NP cells; [3],significantly reduced
same,Nurr1 gene expression,ES cell-derived NP cells; [4],did not have significant effect
same,Wnt1 gene expression,ES cell-derived NP cells; [4],did not have significant effect
same,mRNA level of Lmx1a,ES cell-derived NP cells; [5],significantly reduced
